According to PMC7593776 (RSC Medicinal Chemistry, 2020):

Molecular target: ERK2 (Homo sapiens, UniProt P28482)
Assay: Z′-LYTE kinase inhibition assay
Type: biochemical
Conditions: ATP concentration 100 μM

Chain of ERK2 (P28482 whole entry): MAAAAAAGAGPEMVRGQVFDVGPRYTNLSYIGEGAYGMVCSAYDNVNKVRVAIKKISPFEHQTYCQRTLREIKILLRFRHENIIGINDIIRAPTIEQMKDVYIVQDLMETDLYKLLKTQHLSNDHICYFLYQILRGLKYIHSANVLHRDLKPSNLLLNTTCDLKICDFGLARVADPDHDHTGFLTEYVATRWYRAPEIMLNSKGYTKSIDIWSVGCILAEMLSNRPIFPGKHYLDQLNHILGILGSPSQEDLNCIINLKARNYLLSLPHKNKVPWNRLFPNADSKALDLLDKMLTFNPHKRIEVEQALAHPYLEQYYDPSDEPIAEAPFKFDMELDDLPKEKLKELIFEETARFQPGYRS

## Nc1cccc2cc[nH]c(=O)c12 [MR1]
  inhibition (in words): not inhibited
